Data published in patent publication US11548919B1, “SARS-CoV-2 polypeptide inhibitors directed against the Env TM domain and methods of treatment using said inhibitors” (priority 2022, dated 2023).
Entries after “also recorded” stand apart in the source; their conditions may differ. Square brackets hold non-standard residues; d marks the D form. Ends that are not written are not given here. Nap = naphthyl group, N-terminal cap; Aib = CC(C)(N)C(=O)O

System: SARS-CoV-2 Omicron variant pseudovirus
Assay type: cell-based
Settings: for fluorescence of peptide groups versus no-peptide control: N=3

| Substance | inhibition of SARS-CoV-2 Omicron pseudovirus infection / replication in mammalian cells | fluorescence of peptide groups versus no-peptide control |
| --- | --- | --- |
| NapFFMLUFLMUMEKKKK (Nap-FFML[Aib]FLM[Aib]MEKKKK) | effectively inhibited viral replication; also recorded: significantly inhibited | statistically (p<0.01) less than |
| NapFFTLUFLTUTEKKKK (Nap-FFTL[Aib]FLT[Aib]TEKKKK) | effectively inhibited viral replication; also recorded: significantly inhibited | statistically (p<0.01) less than |
